This is an account of results in PubChem BioAssay AID1259408 (Genetic Toxicology Data Bank (GENE-TOX), 2018).

The source made the active and inactive calls. How the calls were made is not given here.

The subject of this series is GENE-TOX genotoxicity assays, various organisms and cells. Put plainly: GENE-TOX mutagenicity studies. Particulars: for call: Assay Type: In vivo carcinogenicity studies.
The mark [1] stands for this setting: Species/Cell Type: Mammalian polychromatic erythrocytes, Assay Type: Micronucleus test, chromosome aberrations, Assay Code: MNT+, Evaluation Type: Evaluation B (Post-1980).
The mark [2] stands for this setting: Species/Cell Type: Salmonella typhimurium (one or more of the five standard strains: TA98, TA100, TA1535, TA1537, and TA1538), Assay Type: Histidine reverse gene mutation, Ames assay, Assay Code: SAL+, Evaluation Type: Evaluation A (Pre-1980).
[3] abbreviates: Species/Cell Type: Mammalian polychromatic erythrocytes, Assay Type: Micronucleus test, chromosome aberrations, Assay Code: MNTT, Evaluation Type: Evaluation A (Pre-1980).
Where [4] appears, read: Species/Cell Type: Mouse (C3H/10T1/2) cells, Assay Type: Cell transformation, Assay Code: CTH+, Evaluation Type: Evaluation A (Pre-1980).
Setting [5] is: Species/Cell Type: Nonhuman, Assay Type: Sister-chromatid exchange (SCE) in vitro, Assay Code: SC2+D, Dose Response: With dose response, Evaluation Type: Evaluation A (Pre-1980).
Setting [6] is: Species/Cell Type: Nonhuman, Assay Type: Sister-chromatid exchange (SCE) in vivo, Assay Code: SC3+D, Dose Response: With dose response, Evaluation Type: Evaluation B (Post-1980).
Setting [7] is: Species/Cell Type: Syrian hamster embryo (SA7/SHE) cells, Assay Type: Cell transformation, viral enhanced, Assay Code: CT7+, Evaluation Type: Evaluation A (Pre-1980).

In the case of `Clc1ccccc1Cl`, the mutagenic call under setting [1] is “active; positive”.

`ClC1=C(Cl)[C@]2(Cl)[C@H]3[C@H]([C@@H]4C=C[C@H]3C4)[C@@]1(Cl)C2(Cl)Cl`: the mutagenic call runs as follows: (Species/Cell Type: Drosophila melanogaster, Assay Type: Sex-linked recessive lethal gene mutation, Assay Code: SRLT, Evaluation Type: Evaluation A (Pre-1980)) “no conclusion”; (Species/Cell Type: Mammalian polychromatic erythrocytes, Assay Type: Micronucleus test, chromosome aberrations, Assay Code: MNTT, Evaluation Type: Evaluation B (Post-1980)) “no conclusion”; (Species/Cell Type: Saccharomyces cerevisiae, Assay Type: Mitotic recombination or gene conversion, Assay Code: YEH-, Evaluation Type: Evaluation A (Pre-1980)) “inactive; negative”; (Species/Cell Type: Salmonella typhimurium (one or more of the five standard strains: TA98, TA100, TA1535, TA1537, and TA1538), Assay Type: Histidine reverse gene mutation, Ames assay, Assay Code: SAL-, Evaluation Type: Evaluation A (Pre-1980)) “inactive; negative”. The call (Species/Cell Type: Nonhuman, Assay Code: CCG+L, Evaluation Type: Evaluation A (Pre-1980)) is “active; positive”.

With `O=[N+]([O-])c1ccc2c3c(cccc13)CC2`, the call (Species/Cell Type: Nonhuman, Assay Code: CCG+, Evaluation Type: Evaluation A (Pre-1980)) was “active; positive”. For the same compound, the mutagenic call under setting [2] was “active; positive”.

Take `CCCCNC(N)=O`: the mutagenic call (Species/Cell Type: Nonhuman, Assay Type: Chromosome aberrations in vitro, Assay Code: CY&-, Evaluation Type: Evaluation A (Pre-1980)) is “inactive; negative” and the mutagenic call (Species/Cell Type: Nonhuman, Assay Type: Sister-chromatid exchange (SCE) in vitro, Assay Code: SC2+, Evaluation Type: Evaluation A (Pre-1980)) was “active; positive”.

On to `Nc1ccc([N+](=O)[O-])cc1N`, for which the mutagenic call by setting is: (Species/Cell Type: Drosophila melanogaster, Assay Type: Sex-linked recessive lethal gene mutation, Assay Code: SRL+, Evaluation Type: Evaluation A (Pre-1980)) “active; positive”; (Species/Cell Type: Fischer rat embryo (RLV/1706) cells, Assay Type: Cell transformation, viral enhanced, Assay Code: CTR+, Evaluation Type: Evaluation A (Pre-1980)) “active; positive”; (Species/Cell Type: Human diploid fibroblasts, Assay Type: Unscheduled DNA synthesis (UDS) in vitro, DNA effects, Assay Code: UDHT, Evaluation Type: Evaluation A (Pre-1980)) “no conclusion”; under setting [3], “no conclusion”; under setting [4], “active; positive”; (Species/Cell Type: Mouse, Sex: Male, Assay Type: Sperm morphology, Assay Code: SPI-, Evaluation Type: Evaluation A (Pre-1980)) “inactive; negative”. Moreover, the mutagenic call runs as follows: (Species/Cell Type: Neurospora crassa, Assay Type: Aneuploidy, chromosome aberrations, Assay Code: NEN-, Evaluation Type: Evaluation A (Pre-1980)) “inactive; negative”; (Species/Cell Type: Nonhuman, Assay Type: Chromosome aberrations in vitro, Assay Code: CY&+D, Dose Response: With dose response, Evaluation Type: Evaluation A (Pre-1980)) “active; positive”; under setting [5], “active; positive”; (Species/Cell Type: Nonhuman, Sex: Male, Assay Type: Sister-chromatid exchange (SCE) in vivo, Assay Code: SC3TM, Evaluation Type: Evaluation B (Post-1980)) “no conclusion”; (Species/Cell Type: Rodents, Sex: Male, Assay Type: Dominant lethal test, Assay Code: DLTT, Evaluation Type: Evaluation A (Pre-1980)) “no conclusion”; (Species/Cell Type: Saccharomyces cerevisiae, Assay Type: Reverse gene mutation, Assay Code: YER-, Evaluation Type: Evaluation A (Pre-1980)) “inactive; negative”. The mutagenic call under setting [2] was “active; positive”; the mutagenic call (Species/Cell Type: Salmonella typhimurium, Assay Type: Forward and reverse gene mutation, body fluid assay, Assay Code: BFU+, Evaluation Type: Evaluation A (Pre-1980)) is “active; positive”; the mutagenic call (Species/Cell Type: Syrian hamster embryo (SHE) cells, Assay Type: Cell transformation, clonal assay, Assay Code: CTC+, Evaluation Type: Evaluation A (Pre-1980)) is “active; positive”. The call (Species/Cell Type: Nonhuman, Assay Code: CCG-, Evaluation Type: Evaluation A (Pre-1980)) was “inactive; negative”.

With `Cc1c(N)nc([C@H](CC(N)=O)NC[C@H](N)C(N)=O)nc1C(=O)N[C@H](C(=O)N[C@H](C)[C@@H](O)[C@H](C)C(=O)N[C@H](C(=O)NCCc1nc(-c2nc(C(=O)NCCC[S+](C)C)cs2)cs1)[C@@H](C)O)[C@@H](OC1OC(CO)C(O)C(O)C1OC1OC(CO)C(O)C(OC(N)=O)C1O)c1cnc[nH]1` (stereo partly specified), the mutagenic call by setting is: (Species/Cell Type: Chinese hamster ovary (CHO) cells, Assay Type: Forward gene mutation at the HPRT locus, Assay Code: CHO+, Evaluation Type: Evaluation B (Post-1980)) “active; positive”; (Species/Cell Type: Human bone marrow, Assay Type: Chromosome aberrations in vivo, Assay Code: CY5+, Evaluation Type: Evaluation A (Pre-1980)) “active; positive”; (Species/Cell Type: Human cell culture, Assay Type: Chromosome aberrations in vitro, Assay Code: CYZ+, Evaluation Type: Evaluation A (Pre-1980)) “active; positive”; (Species/Cell Type: Human lymphocytes or leukocytes, Assay Type: Chromosome aberrations in vitro, Assay Code: CY7+D, Dose Response: With dose response, Evaluation Type: Evaluation A (Pre-1980)) “active; positive”; (Species/Cell Type: Human lymphocytes, Assay Type: Micronucleus test in vitro, chromosome aberrations, Assay Code: MN7+, Evaluation Type: Evaluation A (Pre-1980)) “active; positive”; (Species/Cell Type: Human lymphocytes, Assay Type: Sister-chromatid exchange (SCE) in vitro, Assay Code: SCL+, Evaluation Type: Evaluation B (Post-1980)) “active; positive”. Further, the mutagenic call was “inactive; negative” (Species/Cell Type: Human lymphocytes, Assay Type: Sister-chromatid exchange (SCE) in vitro, Assay Code: SCL-, Evaluation Type: Evaluation A (Pre-1980)); “active; positive” (Species/Cell Type: Human, Assay Type: Sister-chromatid exchange (SCE) in vitro, Assay Code: SC1+D, Dose Response: With dose response, Evaluation Type: Evaluation B (Post-1980)); “inactive; negative” (Species/Cell Type: Human, Assay Type: Sister-chromatid exchange (SCE) in vitro, Assay Code: SC1-, Evaluation Type: Evaluation A (Pre-1980)); “active; positive” under setting [1]; “no conclusion” under setting [3]; “active; positive” under setting [4]. Also, the mutagenic call runs as follows: (Species/Cell Type: Nonhuman, Assay Type: Chromosome aberrations in vitro, Assay Code: CY&+, Evaluation Type: Evaluation A (Pre-1980)) “active; positive”; under setting [5], “active; positive”; (Species/Cell Type: Nonhuman, Assay Type: Sister-chromatid exchange (SCE) in vitro, Assay Code: SC2+D, Dose Response: With dose response, Evaluation Type: Evaluation B (Post-1980)) “active; positive”; under setting [6], “active; positive”; (Species/Cell Type: Saccharomyces cerevisiae, Assay Type: Forward gene mutation, Assay Code: YEF+, Evaluation Type: Evaluation A (Pre-1980)) “active; positive”; (Species/Cell Type: Saccharomyces cerevisiae, Assay Type: Mitotic recombination or gene conversion, Assay Code: YEC+, Evaluation Type: Evaluation A (Pre-1980)) “active; positive”. Further, the mutagenic call was “active; positive” (Species/Cell Type: Saccharomyces cerevisiae, Assay Type: Mitotic recombination or gene conversion, Assay Code: YEH+, Evaluation Type: Evaluation A (Pre-1980)); “active; positive” (Species/Cell Type: Saccharomyces cerevisiae, Assay Type: Reverse gene mutation, Assay Code: YER+, Evaluation Type: Evaluation A (Pre-1980)); “active; positive” (Species/Cell Type: Vicia faba, Assay Type: Chromosome aberrations, Assay Code: VIC+, Evaluation Type: Evaluation A (Pre-1980)). For the same compound, where the note is “Species/Cell Type: Nonhuman, Assay Code: CCGT, Evaluation Type: Evaluation A (Pre-1980)”, the call is reported as “no conclusion”.

With `CC(C)OC(N)=O`, under setting [6], the mutagenic call is “active; positive”.

As to `O=[As]O`, the mutagenic call is “active; positive” (Species/Cell Type: Bacillus subtilis (H17 vs M45), Assay Type: Rec-assay, spot test, DNA effects (bacterial DNA repair), Assay Code: REW+, Evaluation Type: Evaluation A (Pre-1980)); “no conclusion” (Species/Cell Type: Chinese hamster ovary (CHO) cells, Assay Type: Forward gene mutation at the HPRT locus, Assay Code: CHOT, Evaluation Type: Evaluation B (Post-1980)); “active; positive” (Species/Cell Type: Human lymphocytes, Assay Type: Sister-chromatid exchange (SCE) in vitro, Assay Code: SCL+D*, Activation: With metabolic activation, Dose Response: With dose response, Evaluation Type: Evaluation B (Post-1980)); “active; positive” (Species/Cell Type: Human, Assay Type: Sister-chromatid exchange (SCE) in vitro, Assay Code: SC1+D*, Activation: With metabolic activation, Dose Response: With dose response, Evaluation Type: Evaluation B (Post-1980)); “active; positive” under setting [1]; “active; positive” (Species/Cell Type: Nonhuman, Assay Type: Sister-chromatid exchange (SCE) in vitro, Assay Code: SC2+, Evaluation Type: Evaluation B (Post-1980)). The mutagenic call under setting [7] was “active; positive”.

Regarding `CNC(=O)Oc1ccccc1OC(C)C`, the mutagenic call by setting is: (Species/Cell Type: Bacillus subtilis (H17 vs M45), Assay Type: Rec-assay, spot test, DNA effects (bacterial DNA repair), Assay Code: REWT, Evaluation Type: Evaluation A (Pre-1980)) “no conclusion”; (Species/Cell Type: Bacillus subtilis (H17 vs M45T), Assay Type: Rec-assay, spot test, DNA effects (bacterial DNA repair), Assay Code: REX-, Evaluation Type: Evaluation A (Pre-1980)) “inactive; negative”; (Species/Cell Type: Escherichia coli WP2, Assay Type: Tryptophan reverse gene mutation, Assay Code: WP2-, Evaluation Type: Evaluation A (Pre-1980)) “inactive; negative”; (Species/Cell Type: Saccharomyces cerevisiae, Assay Type: Mitotic recombination or gene conversion, Assay Code: YEC-, Evaluation Type: Evaluation A (Pre-1980)) “inactive; negative”.

With `NC(=O)CCl`, under setting [7], the mutagenic call was “active; positive”.
